Reference: patent US20130005747A1, “METHOD FOR SELECTING A CANCER THERAPY” (Cyclacel Limited, priority 2010, published 2013)
“Also recorded” adds a separate entry of the source.

Experiments:
[1] = test system: A2780; assay: Fractional growth, 72 h seliciclib; assay type: cell-based, human; conditions: A2780 (Ovary), 15 μM seliciclib
Text: (§1) A total of 270 human cancer cell lines from diverse cancer histopathologic types were investigated.

[2] = test system: A-375; assay: Fractional growth, 72 h seliciclib; assay type: cell-based, human; conditions: A-375 (Skin), 15 μM seliciclib
Text: as §1

[3] = test system: KYSE-410; assay: Fractional growth, 72 h seliciclib; assay type: cell-based, human; conditions: KYSE-410 (Esophagus), 15 μM seliciclib
Text: as §1

[4] = test system: MDA-MB-231; assay: Fractional growth, 72 h seliciclib; assay type: cell-based, human; conditions: MDA-MB-231 (Breast), 15 μM seliciclib
Text: as §1

[5] = test system: SK-OV-3; assay: Fractional growth, 72 h seliciclib; assay type: cell-based, human; conditions: SK-OV-3 (Ovary), 15 μM seliciclib
Text: as §1

[6] = test system: SW620; assay: Fractional growth, 72 h seliciclib; assay type: cell-based, human; conditions: SW620 (Intestine), 15 μM seliciclib
Text: as §1

[7] = test system: KYSE-450; assay: Fractional growth, 72 h seliciclib; assay type: cell-based, human; conditions: KYSE-450 (Esophagus), 15 μM seliciclib
Text: as §1

[8] = test system: RCM-1; assay: Fractional growth, 72 h seliciclib; assay type: cell-based, human; conditions: RCM-1 (Intestine), 15 μM seliciclib
Text: as §1

[9] = test system: KMRC-1; assay: Fractional growth, 72 h seliciclib; assay type: cell-based, human; conditions: KMRC-1 (Kidney), 15 μM seliciclib
Text: as §1

[10] = test system: NCI-H2172; assay: Fractional growth, 72 h seliciclib; assay type: cell-based, human; conditions: NCI-H2172 (Lung: NSCLC), 15 μM seliciclib
Text: as §1

[11] = test system: SiHa; assay: Fractional growth, 72 h seliciclib; assay type: cell-based, human; conditions: SiHa (Cervix), 15 μM seliciclib
Text: as §1

[12] = test system: SISO; assay: Fractional growth, 72 h seliciclib; assay type: cell-based, human; conditions: SISO (Cervix), 15 μM seliciclib
Text: as §1

[13] = test system: HEC-1; assay: Fractional growth, 72 h seliciclib; assay type: cell-based, human; conditions: HEC-1 (Uterus), 15 μM seliciclib
Text: as §1

[14] = test system: LU65C; assay: Fractional growth, 72 h seliciclib; assay type: cell-based, human; conditions: LU65C (Lung: NSCLC), 15 μM seliciclib
Text: as §1

[15] = test system: 786-O; assay: Fractional growth, 72 h seliciclib; assay type: cell-based, human; conditions: 786-O (Kidney), 15 μM seliciclib
Text: as §1

[16] = test system: AU565; assay: Fractional growth, 72 h seliciclib; assay type: cell-based, human; conditions: AU565 (Breast), 15 μM seliciclib
Text: as §1

[17] = test system: RT112/84; assay: Fractional growth, 72 h seliciclib; assay type: cell-based, human; conditions: RT112/84 (Bladder), 15 μM seliciclib
Text: as §1

[18] = test system: GP5d; assay: Fractional growth, 72 h seliciclib; assay type: cell-based, human; conditions: GP5d (Intestine), 15 μM seliciclib
Text: as §1

[19] = test system: TYK-nu; assay: Fractional growth, 72 h seliciclib; assay type: cell-based, human; conditions: TYK-nu (Ovary), 15 μM seliciclib
Text: as §1

[20] = test system: COLO 205; assay: Fractional growth, 72 h seliciclib; assay type: cell-based, human; conditions: COLO 205 (Intestine), 15 μM seliciclib
Text: as §1

[21] = test system: NCI-H1734; assay: Fractional growth, 72 h seliciclib; assay type: cell-based, human; conditions: NCI-H1734 (Lung: NSCLC), 15 μM seliciclib
Text: as §1

[22] = test system: NCI-H1568; assay: Fractional growth, 72 h seliciclib; assay type: cell-based, human; conditions: NCI-H1568 (Lung: NSCLC), 15 μM seliciclib
Text: as §1

[23] = test system: NCI-H1944; assay: Fractional growth, 72 h seliciclib; assay type: cell-based, human; conditions: NCI-H1944 (Lung: NSCLC), 15 μM seliciclib
Text: as §1

[24] = test system: M-14; assay: Fractional growth, 72 h seliciclib; assay type: cell-based, human; conditions: M-14 (Skin), 15 μM seliciclib
Text: as §1

[25] = test system: MEL-JUSO; assay: Fractional growth, 72 h seliciclib; assay type: cell-based, human; conditions: MEL-JUSO (Skin), 15 μM seliciclib
Text: as §1

[26] = test system: NCI-H727; assay: Fractional growth, 72 h seliciclib; assay type: cell-based, human; conditions: NCI-H727 (Lung), 15 μM seliciclib
Text: as §1

[27] = test system: NCI-H1048; assay: Fractional growth, 72 h seliciclib; assay type: cell-based, human; conditions: NCI-H1048 (Lung), 15 μM seliciclib
Text: as §1

[28] = test system: nasopharyngeal cancer (NPC); conditions: Phase I, patients with nasopharyngeal cancer; cited from earlier work
[29] = test system: nasopharyngeal cancer (NPC); assay: Clinical study of seliciclib in previously treated advanced solid tumors enriched for NPC; assay type: in vivo, human
Experimental: The incidence of nasopharyngeal cancer (NPC) varies, with higher rates in southern Asia, intermediate rates in Mediterranean basin countries as well as in Greenland and Alaska populations, and low rates in most of the western countries (Chang et al 2006 Cancer Epidemiol. Biomarkers Prev. v15 p 1765). A clinical study of R-roscovitine (seliciclib) in patients with previously treated advanced solid tumors that was heavily enriched for NPC patients was performed. […] Patients were also evaluated for overall survival, response rate, response duration, safety, and tolerability.
A total of 23 patients were enrolled on the study (11 at 400 mg bid and 12 at 800 mg qd.).
This patient was […] and thus not from one of the patient populations where NPC is more prevalent. K-Ras mutations are extremely rare in NPC patients. A biopsy sample from this patient was analysed for K-Ras mutational status. DNA was extracted from a paraffin embedded tumor sample and analysed for a total of 12 different mutations in Gly12 and Gly13 which represent the most common K-Ras activating mutations. Analysis was performed using a standard PCR-RFLP methodology as has been reported previously (Hatzaki et al 2001 Molecular and Cellular Probes; v15, 243) which identified a K-Ras activating mutation at Gly12 in the tumor sample.
This was a longer period of clinical benefit than achieved with four previous therapies.

[30] = test system: 270 human cancer cell lines; assay: Pharmacogenomic analysis of cancer cell lines, summary; assay type: cell-based; conditions: over half of investigated lung, pancreatic, head and neck, esophageal, liver, thyroid, ovarian, uterine, and skin cancer cell lines; 72 hours
Text: as §1

Compound: CC[C@H](CO)Nc1nc(NCc2ccccc2)c2ncn(C(C)C)c2n1 [seliciclib, roscovitine]
- Fractional Growth [1]: 0.4827
- Fractional Growth [2]: 0.1771
- Fractional Growth [3]: 0.4693
- Fractional Growth [4]: 0.4643
- Fractional Growth [5]: 0.7375
- Fractional Growth [6]: 0.7486
- Fractional Growth [7]: 0.4067
- Fractional Growth [8]: 0.6689
- Fractional Growth [9]: 0.554
- Fractional Growth [10]: 0.6197
- Fractional Growth [11]: 0.4302
- Fractional Growth [12]: 0.6424
- Fractional Growth [13]: 0.4632
- Fractional Growth [14]: 0.3767
- Fractional Growth [15]: 0.3998
- Fractional Growth [16]: 0.4762
- Fractional Growth [17]: 0.318
- Fractional Growth [18]: 0.7382
- Fractional Growth [19]: 0.3005
- Fractional Growth [20]: 0.4437
- Fractional Growth [21]: 0.2849
- Fractional Growth [22]: 0.3317
- Fractional Growth [23]: 0.6921
- Fractional Growth [24]: 0.3765
- Fractional Growth [25]: 0.4945
- Fractional Growth [26]: 0.5866
- Fractional Growth [27]: 0.5502
- copy counts of the EBV virus [28]: concomitant reduction in copy counts of the EBV virus
- tumor response [28]: evidence of tumor shrinkage
- disease response among the NPC patients ([29]; a number of individuals, 400 mg bid or 800 mg qd): prolonged stable disease
- duration of stable disease ([29]; one NPC patient with K-Ras activating mutation at Gly12, schedule B, 800 mg once per day, four days every week): stable disease for over two years; also recorded: stable disease for greater than two years
- tolerability ([29]; patients, 400 mg bid and 800 mg qd, four consecutive days every week): well tolerated
- growth inhibition compared with vehicle treated cells [30]: at least 50%
